Test results: publication PMC11044963, “Probing the CRL4^DCAF12 interactions with MAGEA3 and CCT5 di-Glu C-terminal degrons” (PNAS Nexus, 2024)
Entries after “also recorded” stand apart in the source; their conditions may differ. Where no end group is shown, it is not given here.

How the values were obtained:
[1] = system: DCAF12 mutants K91A, K108A, R203A, R256A, R344A; assay: NanoBRET with full-length proteins, DCAF12 mutants; type: cell-based, human; conditions: HEK293T cells; FL protein or degron as stated; DCAF12 mutations vs WT
From the text: Fig. 2. Conserved arginine and lysine residues near DCAF12 central channel participate in MAGEA3 binding in cells. A) DCAF12 electrostatic surface potential analysis showing negatively and positively charged residues colored in red and blue, respectively. On the left, DDB1 contacting surface of DCAF12. On the right, substrate contacting surface with positively charged residues—Arg203, Arg256, and Arg344—highlighted as sticks. Electrostatic potential is shown on a scale of −10 (red) kT/e to 10 (blue). B) Conservation analysis of DCAF12 showing high conservation of the same positively charged residues (represented as sticks) among homologous sequences. Residues were colored on a scale from variable/low conservation (dark teal) to high conservation (magenta). […]
(§1) HEK293T cells were plated in 96-well plates (2 × 10^4/well) and 4 h later transfected with 0.03 µg/well N-terminally HT-tagged DCAF12 (WT or mutants) or HT alone and 0.001 µg/well N-terminally NL-tagged CCT5 and MAGEA3 (FL or -EE degrons) using X-tremeGene HP transfection reagent (Roche), following the manufacturer's instructions. […] Four hours later, 10 µL of NanoBRET Nano-Glo Substrate solution (8 µL/mL Nano-Glo substrate (Promega) diluted in DMEM/F12 no phenol red, supplemented with 4% FBS, penicillin 100 U/mL, and streptomycin 100 µg/mL) was added, and the signal was read. […]

DCAF12 = assay: NanoBRET with full-length proteins, DCAF12; type: cell-based, human; conditions: HEK293T cells; FL protein
From the text: (§2) To further investigate the DCAF12 interaction with MAGEA3 and CCT5 in cells, we developed a NanoBRET assay, which measures the interaction of […] FL MEAGEA3/CCT5 or C-terminal peptide containing degron sequences ([…]/[…], respectively). When donor and acceptor proteins are in close proximity, the donor excites the acceptor, which then emits fluorescence, allowing for direct measurement of protein–protein interaction in cells.
as §1, with “read. Donor emission at 450 nm (filter: 450 nm/BP 80 nm) and acceptor emission at 618 nm (filter: 610 nm/LP) were measured within 10 min of substrate addition using CLARIOstar microplate reader (Mandel).” for “read.”

DCAF12 R203A/R256A = assay: NanoBRET with -EE degrons, DCAF12 R203A/R256A mutant; type: cell-based, human; conditions: HEK293T cells; HT-tagged DCAF12 R203A/R256A, NL-tagged degron; vs WT
From the text: as §2
(§3) Therefore, we used site-directed mutagenesis to generate two DCAF12 mutants in the central pocket of the WDR domain: R203A/R256A and R203A/R244A. DCAF12 wild-type (WT) and mutant interactions with MAGEA3 and CCT5 degron peptides were tested in a NanoBRET proximity-based assay (Fig. 2C).
as §1

DCAF12 R203A/R244A = assay: NanoBRET with -EE degrons, second DCAF12 double arginine mutant; type: cell-based, human; conditions: HEK293T cells; HT-tagged DCAF12 mutant, NL-tagged degron; vs WT
From the text: as §2, §3, §1

[2] = target: T1, biotinylated DCAF12 (Δ1–78) (Homo sapiens, UniProt Q5T6F0); assay: SPR peptide binding, biotinylated DCAF12 (Δ1–78); conditions: unlabeled peptide, 15 °C, 1:1 Langmuir; for koff: dissociation phase 200 s; for koff / kon: HEPES pH 7.4, 2% DMSO, Fig. 1D, E; for kon: injected 120 s at 30 μL/min
T1 construct: DCAF12:79-453aa; His6 with linker ([…]) (C); made in house; host or cells: Sf9 cells (baculovirus, pFBD-BirA vector)
Experimental: For SPR experiments, DCAF12 Δ1–78 sequence was subcloned into pFBD-BirA vector, expressed in sf9 cells, and purified as described (Table S2). Biotinylated DCAF12 (Δ1–78) was immobilized to a level of ∼3,200 RU on a Biacore Series S streptavidin chip (Cytiva BR100531) using a Biacore 8K+ (Cytiva). Experiments were performed in a running buffer of 10 mM 4-(2-hydroxyethyl)-1-piperazineethanesulfonic acid (HEPES), pH 7.4, 150 mM NaCl (Cytiva BR-1006-70), 3 mM EDTA (Corning 46-034-CI), 0.005% P20 (Cytiva BR-1000-54), 5% Glycerol (Sigma G5516-1L), and 2% DMSO (Millipore Sigma MX1457-6). CCT5 and MAGEA3 peptides were injected over a period of 120 s at 30 μL/min followed by a dissociation phase of 200 s in an 8-point 2-fold dilution series with a top concentration of 1 μM. All steps were carried out at 15 °C. Reference and buffer-blank subtracted data were analyzed with the Biacore 8K Evaluation Software and fit to a 1:1 Langmuir model to obtain binding kinetics and KD values.

DCAF12 (Δ1–78) = target: T2, DCAF12 (Δ1–78) (Homo sapiens, UniProt Q5T6F0); assay: FP direct peptide binding, DCAF12 (Δ1–78); conditions: FITC-labeled peptide
T2 construct: DCAF12:79-453aa; His6-TEV site ([…]) (N); made in house; host or cells: Spodoptera frugiperda Sf9 (baculovirus)
From the text: (§4) To further characterize DCAF12 binding to MAGEA3 and CCT5 degrons, we developed a fluorescence polarization (FP)-based peptide binding and displacement assay in vitro. We designed small N-terminal fluorescein isothiocyanate (FITC)-labeled peptides harboring 11 C-terminal residues of MAGEA3 ([…]) and nine from CCT5 ([…]), both carrying the known -EE degron.
(§5) DCAF12 constructs were subcloned from Mammalian Gene Collection (MGC) stock BC063823 into baculovirus expression vector pFBOH-MHL. For co-expression with DCAF12, DDB1 (MGC stock […]) and DDA1 (MGC stock BC000615) were subcloned into pFBOH-LIC vector lacking any protein tags. For testing DDB1-FL direct binding to peptides on FP assay, the protein was expressed using pFBOH-MHL vector with His-tag. All protein constructs were expressed in Spodoptera frugiperda (Sf9), as previously described ([37]).
FP-binding assays were performed using 20 mM Tris pH 7.5, 150 mM NaCl, 5% glycerol, 0.5 mM TCEP, and 0.01% Triton buffer. […] The assay was incubated for 45 min at room temperature, and plates were read using BioTek Synergy 4 (BioTek) plate reader. […] Displacement was evaluated by using a titration curve of unlabeled peptide, with 40 µM as the highest concentration. Buffer, incubation time, and reading conditions followed FP-binding protocol. […] All Kd and KDISP values were calculated using GraphPad Prism version 9.0.

DCAF12-DDB1-DDA1 = target: T3, DCAF12-DDB1-DDA1 (Homo sapiens, UniProt Q16531+Q5T6F0+Q9BW61); assay: FP direct peptide binding, DDB1–DCAF12–DDA1 complex; conditions: for Kd range, FP direct binding: DDB1–DCAF12–DDA1, FITC-labeled peptide
T3 construct: Despite our attempts to express and purify the full-length (FL) DCAF12 in isolation; made in house; host or cells: Spodoptera frugiperda Sf9 (baculovirus co-expression)
From the text: as §4, §5
(§6) FP-binding assays were performed using 20 mM Tris pH 7.5, 150 mM NaCl, 5% glycerol, 0.5 mM TCEP, and 0.01% Triton buffer. All tested proteins were titrated from an initial 4 µM highest concentration, followed by a factor two serial dilution. N-terminally labeled FITC peptides ([…] for MAGEA3, […] for CCT5, and […] for H3K9A) binding to proteins was tested at 20 nM final concentration. The assay was incubated for 45 min at room temperature, and plates were read using BioTek Synergy 4 (BioTek) plate reader. Prior to displacement assay, proteins at binding Kd concentration were mixed with FITC peptides at 20 nM final concentration. Displacement was evaluated by using a titration curve of unlabeled peptide, with 40 µM as the highest concentration. Buffer, incubation time, and reading conditions followed FP-binding protocol. All FP analyses were performed in triplicates and, at least, two independent experiments. All Kd and KDISP values were calculated using GraphPad Prism version 9.0.

DCAF12-DDB1 = target: T4, DCAF12-DDB1 (Homo sapiens, UniProt Q16531+Q5T6F0); assay: FP direct peptide binding, DDB1–DCAF12 complex; conditions: for Kd range, FP direct binding: DDB1–DCAF12, FITC-labeled peptide
T4 construct: Despite our attempts to express and purify the full-length (FL) DCAF12 in isolation; made in house; host or cells: Spodoptera frugiperda Sf9 (baculovirus co-expression)
From the text: as §4, §5, §6

Substance	effect of DCAF12 mutation on interaction with degron, NanoBRET (DCAF12 R203A/R256A)	effect of DCAF12 mutation on interaction with degron, NanoBRET (DCAF12 R203A/R244A)	koff [2]	kon [2]	Kd range, FP direct binding (DCAF12 (Δ1–78))	Kd range, FP direct binding (DCAF12-DDB1-DDA1)	Kd range, FP direct binding (DCAF12-DDB1)	other results
CCT5-FL: full-length T-complex protein 1 subunit epsilon protein	–	–	–	–	–	–	–	effect of DCAF12 mutations on interaction, NanoBRET [1]: no changes were observed; also recorded: little to no effect; BRET signal over negative control (DCAF12): 3.6 fold; engagement with DCAF12 in cells, NanoBRET (DCAF12): low engagement
IRKPGESEE [CCT5 degron]	significantly decreased	significantly decreased	–	–	–	–	–	–
IRKPGESEE [CCT5]	–	–	0.017 s⁻¹	290000 M⁻¹ s⁻¹	nanomolar range	nanomolar range	nanomolar range	Kd ([2]; 8-point 2-fold dilution from 1 μM, 10 mM HEPES pH 7.4, 150 mM NaCl, 3 mM EDTA, 0.005% P20, 5% glycerol, 2% DMSO, Table S1): 60 nM
LHEWVLREGEE [MAGEA3]	–	–	0.06 s⁻¹	370000 M⁻¹ s⁻¹	nanomolar range	nanomolar range	nanomolar range	Kd (DCAF12-DDB1-DDA1; FITC-labeled peptide 20 nM, protein 2-fold dilution from 4 µM, 20 mM Tris pH 7.5, 150 mM NaCl, 5% glycerol, 0.5 mM TCEP, 0.01% Triton, 45 min, room temperature, triplicates, at least two independent experiments): 60 nM
LHEWVLREGEE [MAGEA3 degron]	significantly decreased	significantly decreased	–	–	–	–	–	–
ARTKQTARASTGGK [H3K9A, reference compound]	–	–	–	–	–	–	–	FP binding of control peptide lacking -EE (DCAF12-DDB1; FITC-labeled peptide 20 nM, protein up to 4 µM, Tris pH 7.5, 45 min, room temperature, DCAF12-DDB1 complex per Fig. S2): did not show any binding
